Results as given in ChEMBL document CHEMBL4417631, “Oral peptide inhibitors of interleukin-23 receptor and their use to treat inflammatory bowel diseases” (2017).
pIC50: −log10 of the molar value. *1 amine or outer side, *2 acyl side, *3 side chain or, on linkers, in order; H or OH if unused. Where a SMILES comes first, the peptide text is derived from it. Bridges are numbered along the chain shown (N, C = ends). [ ]: non-standard residue; d: D form. Abu(4-yl) = O=C([C@H](CC[*:3])N[*:1])[*:2]; 2Nal = N[C@@H](Cc1ccc2ccccc2c1)C(=O)O; AEF = NCCOc1ccc(C[C@H](N)C(=O)O)cc1; αMeK = C[C@](N)(CCCCN)C(=O)O

How the values were obtained:
[1] = Inhibition of interleukin-23 binding to rat interleukin-23 receptor incubated for 2 hrs by competitive binding ELISA
[2] = Half life in simulated gastric fluid at 20 uM by LC-MS/MS analysis; format: ADME
[3] = Half life in simulated intestinal fluid at 20 uM by LC-MS/MS analysis; format: ADME
Interleukin-23 receptor [4] = biological target: T1, Interleukin-23 receptor (Homo sapiens, UniProt Q5VWK5); test: Inhibition of interleukin-23 receptor in human DB cells assessed as reduction in IL-23-stimulated STAT3 phosphorylation incubated for 30 mins by HTRF assay; format: cell-based
T1 sequence (Q5VWK5 whole entry): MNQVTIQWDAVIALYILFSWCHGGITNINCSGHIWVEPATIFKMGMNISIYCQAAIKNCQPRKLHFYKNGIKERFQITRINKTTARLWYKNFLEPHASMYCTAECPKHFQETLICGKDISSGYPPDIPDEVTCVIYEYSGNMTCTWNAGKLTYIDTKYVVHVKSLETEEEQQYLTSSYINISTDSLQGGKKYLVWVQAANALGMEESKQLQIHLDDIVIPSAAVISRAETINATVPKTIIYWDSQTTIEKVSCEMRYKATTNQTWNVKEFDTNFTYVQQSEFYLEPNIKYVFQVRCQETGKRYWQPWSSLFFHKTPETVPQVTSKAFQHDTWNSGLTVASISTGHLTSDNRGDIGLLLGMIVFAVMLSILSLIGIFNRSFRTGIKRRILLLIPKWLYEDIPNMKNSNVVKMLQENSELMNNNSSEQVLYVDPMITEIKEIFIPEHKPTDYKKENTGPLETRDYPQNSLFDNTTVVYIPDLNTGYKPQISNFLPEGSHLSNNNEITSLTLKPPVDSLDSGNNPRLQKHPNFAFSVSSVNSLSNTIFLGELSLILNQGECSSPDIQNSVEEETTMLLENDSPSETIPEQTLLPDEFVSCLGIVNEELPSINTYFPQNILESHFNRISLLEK

Interleukin-23 receptor [5] = biological target: T1, Interleukin-23 receptor; test: Inhibition of interleukin-23 binding to human interleukin-23 receptor incubated for 2 hrs by competitive binding ELISA

| pIC50 [1] | half-life at 20 µM [2] | half-life at 20 µM [3] | pIC50 (Interleukin-23 receptor [4]) | pIC50 (Interleukin-23 receptor [5]) | Structure (SMILES) |
| --- | --- | --- | --- | --- | --- |
| 7.00 to 7.60 | > 6 h | > 6 h | > 8.00 | > 8.00 | CC(=O)N[C@H](C(=O)N[C@@H](CCC(N)=O)C(=O)N[C@H](C(=O)N[C@@H](Cc1c[nH]c2ccccc12)C(=O)N[C@@H](CCC(N)=O)C(=O)N[C@H](C(=O)N[C@@H](Cc1ccc(OCCN)cc1)C(=O)N[C@@H](Cc1ccc2ccccc2c1)C(=O)N[C@@](C)(CCCCN)C(=O)N[C@@H](CCC(=O)O)C(=O)N[C@@H](CC(N)=O)C(=O)N[C@@H](C)C(N)=O)C(C)(C)S)[C@@H](C)O)C(C)(C)S |
| > 8.00 | 2 to 3 h | > 6 h | > 8.00 | > 8.00 | CC(=O)N[C@@H](CCC(=O)O)C(=O)N[C@H]1CCSC[C@@H](C(=O)N[C@@H](Cc2ccc(OCCN)cc2)C(=O)N[C@@H](Cc2ccc3ccccc3c2)C(=O)N[C@@](C)(CCCCN)C(=O)N[C@@H](CCC(=O)O)C(=O)N[C@@H](CC(N)=O)C(=O)N[C@@H](CC(N)=O)C(N)=O)NC(=O)[C@H](CCC(N)=O)NC(=O)[C@H](Cc2c[nH]c3ccccc23)NC(=O)[C@H]([C@@H](C)O)NC(=O)[C@H](CCC(N)=O)NC1=O |
| 6.00 to 7.00 | 2 to 3 h | 3 to 6 h | 7.00 to 7.60 | 7.00 to 7.60 | COc1ccc(C[C@H](NC(=O)[C@H]2NC(=O)[C@H](CCC(N)=O)NC(=O)[C@H](Cc3c[nH]c4ccccc34)NC(=O)[C@H]([C@@H](C)O)NC(=O)[C@H](CCC(N)=O)NC(=O)[C@@H](NC(C)=O)CCSC2(C)C)C(=O)N[C@@H](Cc2ccc3ccccc3c2)C(=O)N[C@@](C)(CCCCN)C(=O)N[C@@H](CCCCNC(C)=O)C(=O)N[C@@H](CC(N)=O)C(=O)NCC(N)=O)cc1 |
| 7.60 to 8.00 | > 6 h | > 6 h | > 8.00 | > 8.00 | CC(=O)NCCCC[C@H](NC(=O)[C@](C)(CCCCN)NC(=O)[C@H](Cc1ccc2ccccc2c1)NC(=O)[C@H](Cc1ccc(OCCN)cc1)NC(=O)[C@@H](NC(=O)[C@H](CCC(N)=O)NC(=O)[C@H](Cc1c[nH]c2ccccc12)NC(=O)[C@@H](NC(=O)[C@H](CCC(N)=O)NC(=O)[C@@H](NC(C)=O)C(C)(C)S)[C@@H](C)O)C(C)(C)S)C(=O)N[C@@H](CC(N)=O)C(=O)N[C@@H](CC(N)=O)C(N)=O |
| > 8.00 | > 6 h | > 6 h | > 8.00 | > 8.00 | CC(=O)N[C@H]1CCSC[C@@H](C(=O)N[C@@H](Cc2ccc(OCCN)cc2)C(=O)N[C@@H](Cc2ccc3ccccc3c2)C(=O)N[C@@](C)(CCCCN)C(=O)N[C@@H](CCC(=O)O)C(=O)N[C@@H](CC(N)=O)C(=O)NCC(N)=O)NC(=O)[C@H](CCC(N)=O)NC(=O)[C@H](Cc2c[nH]c3ccccc23)NC(=O)[C@H]([C@@H](C)O)NC(=O)[C@H](CCC(N)=O)NC1=O |
| 7.00 to 7.60 | < 1 h | 3 to 6 h |  | 7.60 to 8.00 | CC(=O)N[C@H]1CCSC[C@@H](C(=O)N[C@@H](Cc2ccc3ccccc3c2)C(=O)N[C@@H](Cc2ccc3ccccc3c2)C(=O)N[C@@](C)(CCCCN)C(=O)N[C@@H](CCC(=O)O)C(=O)N[C@@H](CC(N)=O)C(=O)NCC(N)=O)NC(=O)[C@H](CCC(N)=O)NC(=O)[C@H](Cc2c[nH]c3ccccc23)NC(=O)[C@H]([C@@H](C)O)NC(=O)[C@H](CCC(N)=O)NC1=O (Ac-[Abu(4-yl)]QTWQC[2Nal][2Nal][αMeK]ENG-NH2; thioether 1-6) |

Further lines, the compound ahead of its results:

| Structure (SMILES) | pIC50 [1] | half-life at 20 µM [2] | half-life at 20 µM [3] | pIC50 (Interleukin-23 receptor [4]) | pIC50 (Interleukin-23 receptor [5]) |
| --- | --- | --- | --- | --- | --- |
| COc1ccc(C[C@H](NC(=O)[C@@H](NC(=O)[C@H](CCC(N)=O)NC(=O)[C@H](Cc2c[nH]c3ccccc23)NC(=O)[C@@H](NC(=O)[C@H](CCC(N)=O)NC(=O)[C@@H](NC(=O)CCC(=O)O)C(C)(C)S)[C@@H](C)O)C(C)(C)S)C(=O)N[C@@H](Cc2ccc3ccccc3c2)C(=O)N[C@@](C)(CCCCN)C(=O)N[C@@H](CCCCNC(C)=O)C(=O)N[C@@H](CC(N)=O)C(=O)NCC(N)=O)cc1 | 7.00 to 7.60 | 3 to 6 h | > 6 h | > 8.00 | 7.00 to 7.60 |
| COc1ccc(C[C@H](NC(=O)[C@@H]2CSCC[C@H](NC(=O)[C@@H](CCCCN)NC(C)=O)C(=O)N[C@@H](CCC(N)=O)C(=O)N[C@@H]([C@@H](C)O)C(=O)N[C@@H](Cc3c[nH]c4ccccc34)C(=O)N[C@@H](CCC(N)=O)C(=O)N2)C(=O)N[C@@H](Cc2ccc3ccccc3c2)C(=O)N[C@@](C)(CC(C)C)C(=O)N[C@@H](CCC(=O)O)C(=O)N[C@@H](CC(N)=O)C(=O)NCC(N)=O)cc1 | 7.60 to 8.00 | < 1 h | 1 to 2 h | > 8.00 | > 8.00 |
| COc1ccc(C[C@H](NC(=O)[C@H]2NC(=O)[C@H](CCC(N)=O)NC(=O)[C@H](Cc3c[nH]c4ccccc34)NC(=O)[C@H]([C@@H](C)O)NC(=O)[C@H](CCC(N)=O)NC(=O)[C@@H](NC(C)=O)CCSC2(C)C)C(=O)N[C@@H](Cc2ccc3ccccc3c2)C(=O)N[C@@](C)(CCCCN)C(=O)N[C@@H](CCC(=O)O)C(=O)N[C@@H](CC(N)=O)C(=O)NCC(N)=O)cc1 | 6.00 to 7.00 | 2 to 3 h | 3 to 6 h | 7.00 to 7.60 | 6.00 to 7.00 |
| CC(=O)N[C@@H](CC(C)C)C(=O)N[C@H]1CCSC[C@@H](C(=O)N[C@@H](Cc2ccc(OCCN)cc2)C(=O)N[C@@H](Cc2ccc3ccccc3c2)C(=O)N[C@@](C)(CCCCN)C(=O)N[C@@H](CCC(=O)O)C(=O)N[C@@H](CC(N)=O)C(=O)N[C@@H](CC(N)=O)C(N)=O)NC(=O)[C@H](CCC(N)=O)NC(=O)[C@H](Cc2c[nH]c3ccccc23)NC(=O)[C@H]([C@@H](C)O)NC(=O)[C@H](CCC(N)=O)NC1=O (Ac-L[Abu(4-yl)]QTWQC[AEF][2Nal][αMeK]ENN-NH2; thioether 2-7) | > 8.00 | 2 to 3 h | > 6 h | > 8.00 | > 8.00 |
| COc1ccc(C[C@H](NC(=O)[C@@H](NC(=O)[C@H](CCC(N)=O)NC(=O)[C@H](Cc2c[nH]c3ccccc23)NC(=O)[C@@H](NC(=O)[C@H](CCC(N)=O)NC(=O)[C@@H](NC(=O)[C@@H]2CCC(=O)N2)C(C)(C)S)[C@@H](C)O)C(C)(C)S)C(=O)N[C@@H](Cc2ccc3ccccc3c2)C(=O)N[C@@](C)(CCCCN)C(=O)N[C@@H](CCCCNC(C)=O)C(=O)N[C@@H](CC(N)=O)C(=O)NCC(N)=O)cc1 | 7.00 to 7.60 | 3 to 6 h | > 6 h | > 8.00 | 7.00 to 7.60 |
| COc1ccc(C[C@H](NC(=O)[C@@H]2CSCC[C@H](NC(C)=O)C(=O)N[C@@H](CCC(N)=O)C(=O)N[C@@H]([C@@H](C)O)C(=O)N[C@@H](Cc3c[nH]c4ccccc34)C(=O)N[C@@H](CCC(N)=O)C(=O)N2)C(=O)N[C@@H](Cc2c[nH]c3ccccc23)C(=O)N[C@@](C)(CCCCN)C(=O)N[C@@H](CCC(=O)O)C(=O)N[C@@H](CC(N)=O)C(=O)NCC(N)=O)cc1 | 7.00 to 7.60 | < 1 h | > 6 h | 7.60 to 8.00 | 7.60 to 8.00 |
| CC(=O)N[C@H](CCC(=O)O)C(=O)N[C@H]1CCSC[C@@H](C(=O)N[C@@H](Cc2ccc(OCCN)cc2)C(=O)N[C@@H](Cc2ccc3ccccc3c2)C(=O)N[C@@](C)(CCCCN)C(=O)N[C@@H](CCC(=O)O)C(=O)N[C@@H](CC(N)=O)C(=O)N[C@@H](CC(N)=O)C(N)=O)NC(=O)[C@H](CCC(N)=O)NC(=O)[C@H](Cc2c[nH]c3ccccc23)NC(=O)[C@H]([C@@H](C)O)NC(=O)[C@H](CCC(N)=O)NC1=O | > 8.00 | 1 to 2 h | > 6 h | > 8.00 | > 8.00 |
| COc1ccc(C[C@H](NC(=O)[C@@H]2CSCC[C@H](NC(C)=O)C(=O)N[C@@H](CCC(N)=O)C(=O)N[C@@H]([C@@H](C)O)C(=O)N[C@@H](Cc3c[nH]c4ccccc34)C(=O)N[C@@H](CCC(N)=O)C(=O)N2)C(=O)N[C@@H](Cc2ccc3ccccc3c2)C(=O)N[C@@](C)(CCCN)C(=O)N[C@@H](CCCCNC(C)=O)C(=O)N[C@@H](CC(N)=O)C(=O)NCC(N)=O)cc1 | 7.60 to 8.00 | < 1 h | 2 to 3 h | > 8.00 | 7.60 to 8.00 |
| CC(=O)N[C@H]1CCSC[C@@H](C(=O)N[C@@H](Cc2ccc(OCCN)cc2)C(=O)N[C@@H](Cc2ccc3ccccc3c2)C(=O)NC2(C(=O)N[C@@H](CCC(=O)O)C(=O)N[C@@H](CC(N)=O)C(=O)N[C@@H](CC(N)=O)C(N)=O)CCNCC2)NC(=O)[C@H](CCC(N)=O)NC(=O)[C@H](Cc2c[nH]c3ccccc23)NC(=O)[C@H]([C@@H](C)O)NC(=O)[C@H](CCC(N)=O)NC1=O | > 8.00 | > 6 h | > 6 h | > 8.00 |  |
| CC(=O)N[C@H]1CCSC[C@@H](C(=O)N[C@@H](Cc2ccc(OCCN)cc2)C(=O)N[C@@H](Cc2ccc3ccccc3c2)C(=O)NC2(C(=O)N[C@@H](CCC(=O)O)C(=O)N[C@@H](CC(N)=O)C(=O)N[C@@H](CC(N)=O)C(N)=O)CCCC2)NC(=O)[C@H](CCC(N)=O)NC(=O)[C@H](Cc2c[nH]c3ccccc23)NC(=O)[C@H]([C@@H](C)O)NC(=O)[C@H](CCC(N)=O)NC1=O | > 8.00 | > 6 h | 2 to 3 h | > 8.00 |  |
